Data reported in patent US5189144A, “Human calpastatin-like polypeptide” (Takara Shuzo Co., Ltd., priority 1989, dated 1993).
“Also recorded” adds a separate entry of the source. No end group written: not given here.

system: calpain; assay: assay of calpain inhibition (casein substrate, acid-soluble fraction read at 280 nm); assay type: biochemical; settings: 15 min at 30° C. after adding calcium chloride, absorbance at 280 nm of the supernatant, profiles only in FIGS. 3 and 4
Experimental: Confirmation of expression can be done by the measurement of the inhibition of calpain, as in the measurement done with casein as the substrate, with extraction from a culture fluid of E. coli, and measurement of the decrease in the acid-soluble fraction by the use of spectroscopy.
The assay of calpain inhibition was done as described below (A. Kitahara et al., J. Biochem., 95, 1759-1766, 1984). First, 10 μl of the sample 2.5 μl of calpain at the concentration of 1 mg/ml, 40 μl of 2% casein in imidazole, and 20 μl of crysteine at the concentration of 6 mg/ml were mixed together, giving a total volume of 180 μl. Next, the mixture was treated for 5 min at 30° C., after which 20 μl of 50 mM calcium chloride was added, and the mixture was incubated for 15 min at 30° C. Then 200 μl of 5% trichloroacetic acid was added to stop the reaction, and the mixture was centrifuged at 12,000 rpm for 10 min. The supernatant was obtained, and its absorbance at 280 nm was measured, from which the inhibitory activity toward calpain was calculated.

Row | Sequence | inhibitory activity toward calpain
1 | YIEELGKREVTIPPKYR [polypeptide with 17 amino acids, reference compound] | almost undetectable
2 | TYIEELGKREVTIPPKYRELL [polypeptide of 21 amino acids] | can inhibit calpain; also recorded: had calpastatin-like activity
3 | DPMSSTYIEELGKREVTIPPKYRELL [polypeptide of 26 amino acids] | can inhibit calpain; also recorded: had calpastatin-like activity
4 | TYIEELGKREVTIPPKYR [polypeptide of 18 amino acids] | can inhibit calpain; also recorded: still has activity; also recorded: inhibited calpain
